In patent publication US8921362B2, “6,7-dialkoxy quinazoline derivatives and methods of treating drug resistant and other tumors” (Natco Pharma Limited, priority 2008, dated 2014):

Experiments:
Experiment in all cases: KinomeScan
Format in all cases: binding
Conditions in all cases: read-out: % Ctrl @ 10000 nM
LTK = molecular target: T1, LTK (Homo sapiens, UniProt P29376)
T1 construct: host or cells: E. coli host derived from the BL21 strain, infected with T7 phage
Summary of the method: (§1)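 Kinase-tagged T7 phage lysates were cleared by centrifugation and filtration, then incubated with liganded beads blocked with excess biotin and SeaBlock/1% BSA/0.05% Tween 20/1 mM DTT buffer plus test compound. Phage retained on beads was eluted and quantified by quantitative PCR.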

ABL1(F317I) = molecular target: T2, ABL1(F317I) (Homo sapiens, UniProt P00519, F317I)
T2 construct: host or cells: E. coli (BL21-derived), T7 phage lysate
Summary of the method: as §1

TNK2 = molecular target: T3, TNK2 (Homo sapiens, UniProt Q07912)
T3 construct: host or cells: E. coli host derived from BL21, T7 phage
Summary of the method: as §1

MST1R = molecular target: T4, MST1R (Homo sapiens, UniProt Q04912)
T4 construct: host or cells: T7 phage grown in E. coli host derived from BL21
Summary of the method: as §1

ACVR2B = molecular target: T5, ACVR2B (Homo sapiens, UniProt Q13705)
T5 construct: host or cells: E. coli (BL21-derived), T7 phage lysate
Summary of the method: as §1

AMPK-alpha2 = molecular target: T6, AMPK-alpha2 (Homo sapiens, UniProt P54646)
T6 construct: host or cells: E. coli (BL21-derived), T7 phage lysate
Summary of the method: as §1

p38-beta = molecular target: T7, p38-beta (Homo sapiens, UniProt Q15759)
T7 construct: host or cells: E. coli host derived from BL21, infected with T7 phage
Summary of the method: as §1

CSNK1A1L = molecular target: T8, CSNK1A1L (Homo sapiens, UniProt Q8N752)
T8 construct: host or cells: T7 phage in E. coli host derived from BL21
Summary of the method: as §1

EPHA7 = molecular target: T9, EPHA7 (Homo sapiens, UniProt Q15375)
T9 construct: purchased Ambit Biosciences Corp; host or cells: T7 phage in E. coli host derived from BL21
T9 sequence (Q15375 28-998): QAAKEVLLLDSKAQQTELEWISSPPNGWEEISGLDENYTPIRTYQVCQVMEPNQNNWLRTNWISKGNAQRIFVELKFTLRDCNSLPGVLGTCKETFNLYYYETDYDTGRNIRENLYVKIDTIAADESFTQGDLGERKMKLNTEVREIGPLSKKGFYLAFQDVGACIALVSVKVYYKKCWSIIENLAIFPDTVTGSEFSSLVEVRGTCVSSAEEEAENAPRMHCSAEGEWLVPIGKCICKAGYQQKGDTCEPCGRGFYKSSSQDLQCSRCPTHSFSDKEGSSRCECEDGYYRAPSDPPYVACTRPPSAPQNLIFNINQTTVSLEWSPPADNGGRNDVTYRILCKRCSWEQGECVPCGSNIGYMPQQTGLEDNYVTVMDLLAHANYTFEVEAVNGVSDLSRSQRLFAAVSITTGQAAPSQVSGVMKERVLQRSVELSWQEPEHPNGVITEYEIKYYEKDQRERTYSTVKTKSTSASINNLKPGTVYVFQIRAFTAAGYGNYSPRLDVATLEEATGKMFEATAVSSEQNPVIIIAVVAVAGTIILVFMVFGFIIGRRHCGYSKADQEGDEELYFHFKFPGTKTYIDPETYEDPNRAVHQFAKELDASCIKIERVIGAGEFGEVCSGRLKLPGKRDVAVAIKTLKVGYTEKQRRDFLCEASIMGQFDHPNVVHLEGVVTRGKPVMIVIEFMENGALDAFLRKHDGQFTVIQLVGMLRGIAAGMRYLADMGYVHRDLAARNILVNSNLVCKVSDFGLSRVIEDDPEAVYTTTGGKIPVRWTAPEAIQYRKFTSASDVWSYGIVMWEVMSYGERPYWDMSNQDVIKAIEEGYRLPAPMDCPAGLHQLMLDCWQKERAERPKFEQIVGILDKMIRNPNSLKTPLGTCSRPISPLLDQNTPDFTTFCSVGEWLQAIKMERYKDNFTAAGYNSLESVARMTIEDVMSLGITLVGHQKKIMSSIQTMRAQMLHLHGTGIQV
Summary of the method: as §1

ASK1 = molecular target: T10, ASK1 (Homo sapiens, UniProt Q99683)
T10 construct: host or cells: E. coli host derived from BL21
Summary of the method: as §1

MEK3 = molecular target: T11, MEK3 (Homo sapiens, UniProt P46734)
T11 construct: host or cells: E. coli host derived from the BL21 strain, infected with T7 phage
Summary of the method: as §1

[1] = molecular target: T12, JAK3(JH1domain- catalytic) (Homo sapiens, UniProt P52333)
T12 construct: JAK3(JH1domain- catalytic); host or cells: T7 phage grown in E. coli host derived from BL21
Summary of the method: as §1

CDKL2 = molecular target: T13, CDKL2 (Homo sapiens, UniProt Q92772)
T13 construct: host or cells: T7 phage in E. coli host derived from BL21
Summary of the method: as §1

ARK5 = molecular target: T14, ARK5 (Homo sapiens, UniProt O60285)
T14 construct: host or cells: E. coli host derived from BL21
T14 sequence (O60285 whole entry): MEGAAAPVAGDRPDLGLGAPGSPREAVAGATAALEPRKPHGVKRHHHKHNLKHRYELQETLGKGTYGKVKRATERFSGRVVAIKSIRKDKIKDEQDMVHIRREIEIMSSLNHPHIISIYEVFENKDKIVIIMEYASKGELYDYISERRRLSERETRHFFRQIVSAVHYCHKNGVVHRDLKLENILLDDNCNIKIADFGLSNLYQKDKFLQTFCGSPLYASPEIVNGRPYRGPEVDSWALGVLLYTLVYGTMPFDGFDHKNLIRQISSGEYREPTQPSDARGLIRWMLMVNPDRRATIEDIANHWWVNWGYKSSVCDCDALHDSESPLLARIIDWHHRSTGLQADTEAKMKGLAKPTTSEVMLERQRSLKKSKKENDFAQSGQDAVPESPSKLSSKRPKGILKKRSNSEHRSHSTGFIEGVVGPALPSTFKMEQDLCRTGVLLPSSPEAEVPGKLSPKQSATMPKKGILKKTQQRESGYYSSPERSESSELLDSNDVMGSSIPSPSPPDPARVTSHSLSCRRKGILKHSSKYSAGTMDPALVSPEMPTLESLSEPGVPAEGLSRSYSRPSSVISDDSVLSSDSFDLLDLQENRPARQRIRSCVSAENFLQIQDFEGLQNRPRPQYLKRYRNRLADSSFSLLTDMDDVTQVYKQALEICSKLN
Summary of the method: as §1

MARK2 = molecular target: T15, MARK2 (Homo sapiens, UniProt Q7KZI7)
T15 construct: host or cells: E. coli host derived from the BL21 strain, infected with T7 phage
Summary of the method: as §1

PAK4 = molecular target: T16, PAK4 (Homo sapiens, UniProt O96013)
T16 construct: host or cells: E. coli host derived from BL21, infected with T7 phage
T16 sequence (O96013 whole entry): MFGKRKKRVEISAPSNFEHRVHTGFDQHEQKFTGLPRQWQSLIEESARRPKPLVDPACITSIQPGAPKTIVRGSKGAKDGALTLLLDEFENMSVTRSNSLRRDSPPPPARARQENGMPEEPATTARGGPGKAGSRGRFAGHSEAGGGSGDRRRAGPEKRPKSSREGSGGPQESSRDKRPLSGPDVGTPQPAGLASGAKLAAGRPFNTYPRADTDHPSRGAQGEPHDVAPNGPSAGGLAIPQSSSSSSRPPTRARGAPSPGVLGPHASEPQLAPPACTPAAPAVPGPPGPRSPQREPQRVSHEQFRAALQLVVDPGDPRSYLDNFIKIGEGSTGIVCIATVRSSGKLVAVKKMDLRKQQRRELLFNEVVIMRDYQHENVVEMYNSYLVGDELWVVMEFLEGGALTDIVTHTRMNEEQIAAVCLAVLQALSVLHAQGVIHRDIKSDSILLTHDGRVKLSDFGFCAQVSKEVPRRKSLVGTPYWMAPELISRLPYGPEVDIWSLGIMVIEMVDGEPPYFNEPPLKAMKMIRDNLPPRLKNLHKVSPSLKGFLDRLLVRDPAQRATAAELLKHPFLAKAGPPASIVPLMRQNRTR
Summary of the method: as §1

PIM2 = molecular target: T17, PIM2 (Homo sapiens, UniProt Q9P1W9)
T17 construct: host or cells: T7 phage in E. coli host derived from BL21
Summary of the method: as §1

JNK1 = molecular target: T18, JNK1 (Homo sapiens, UniProt P45983)
T18 construct: host or cells: T7 phage grown in E. coli host derived from BL21
Summary of the method: as §1

CLK3 = molecular target: T19, CLK3 (Homo sapiens, UniProt P49761)
T19 construct: host or cells: T7 phage in E. coli host derived from BL21
T19 sequence (P49761 whole entry): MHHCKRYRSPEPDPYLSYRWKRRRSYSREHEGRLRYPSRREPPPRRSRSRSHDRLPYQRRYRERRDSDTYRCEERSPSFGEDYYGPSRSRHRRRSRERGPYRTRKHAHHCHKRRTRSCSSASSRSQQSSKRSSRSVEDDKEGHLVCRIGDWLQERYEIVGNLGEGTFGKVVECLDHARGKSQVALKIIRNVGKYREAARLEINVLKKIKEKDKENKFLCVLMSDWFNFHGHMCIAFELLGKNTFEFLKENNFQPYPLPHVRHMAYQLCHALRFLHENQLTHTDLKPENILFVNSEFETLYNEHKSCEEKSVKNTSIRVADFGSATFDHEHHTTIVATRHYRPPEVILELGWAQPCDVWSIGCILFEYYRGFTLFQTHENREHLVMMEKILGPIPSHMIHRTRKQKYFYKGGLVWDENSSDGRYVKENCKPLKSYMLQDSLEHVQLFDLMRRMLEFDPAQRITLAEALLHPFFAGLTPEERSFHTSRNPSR
Summary of the method: as §1

PDPK1 = molecular target: T20, PDPK1 (Homo sapiens, UniProt O15530)
T20 construct: host or cells: E. coli host derived from BL21, infected with T7 phage
Summary of the method: as §1

[2] = molecular target: T21, EGFR(L747-S752del, P753S) (Homo sapiens, UniProt P00533, DEL747-752/P753S)
T21 construct: purchased Ambit Biosciences Corp (KinomeScan); host or cells: T7 phage in E. coli host derived from BL21
T21 sequence (P00533 with tags, fused parts or gaps DEL747-752/P753S): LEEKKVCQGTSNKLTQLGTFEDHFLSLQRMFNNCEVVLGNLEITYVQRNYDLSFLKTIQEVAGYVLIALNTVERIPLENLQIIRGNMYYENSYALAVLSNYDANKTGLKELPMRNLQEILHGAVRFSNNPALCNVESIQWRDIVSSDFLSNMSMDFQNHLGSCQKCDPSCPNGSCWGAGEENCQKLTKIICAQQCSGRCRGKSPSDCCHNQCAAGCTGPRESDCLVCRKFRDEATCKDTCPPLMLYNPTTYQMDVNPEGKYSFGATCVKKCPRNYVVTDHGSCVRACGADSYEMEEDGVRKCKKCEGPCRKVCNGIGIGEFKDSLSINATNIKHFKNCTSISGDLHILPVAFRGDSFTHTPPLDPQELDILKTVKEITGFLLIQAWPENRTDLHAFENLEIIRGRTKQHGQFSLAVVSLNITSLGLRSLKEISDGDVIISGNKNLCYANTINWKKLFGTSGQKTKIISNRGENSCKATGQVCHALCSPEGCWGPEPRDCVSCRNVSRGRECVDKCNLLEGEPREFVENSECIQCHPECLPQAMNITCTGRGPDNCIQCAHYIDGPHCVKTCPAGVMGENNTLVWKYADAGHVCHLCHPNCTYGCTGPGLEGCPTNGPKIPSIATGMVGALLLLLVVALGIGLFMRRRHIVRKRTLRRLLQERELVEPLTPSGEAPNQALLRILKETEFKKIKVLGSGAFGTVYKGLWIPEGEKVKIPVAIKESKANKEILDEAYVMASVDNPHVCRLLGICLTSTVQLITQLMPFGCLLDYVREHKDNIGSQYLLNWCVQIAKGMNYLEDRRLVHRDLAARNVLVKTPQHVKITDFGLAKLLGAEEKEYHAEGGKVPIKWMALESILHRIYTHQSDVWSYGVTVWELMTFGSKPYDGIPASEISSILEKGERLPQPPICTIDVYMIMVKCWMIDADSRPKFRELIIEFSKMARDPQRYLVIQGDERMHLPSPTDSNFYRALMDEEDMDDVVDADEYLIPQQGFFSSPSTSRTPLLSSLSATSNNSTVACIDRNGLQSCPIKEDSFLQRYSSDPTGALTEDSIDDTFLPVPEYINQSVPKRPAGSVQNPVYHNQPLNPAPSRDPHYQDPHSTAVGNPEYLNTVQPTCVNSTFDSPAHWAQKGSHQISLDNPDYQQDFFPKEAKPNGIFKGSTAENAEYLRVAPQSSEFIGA
Summary of the method: as §1

CDC2L2 = molecular target: T22, CDC2L2 (Homo sapiens, UniProt Q9UQ88)
T22 construct: host or cells: T7 phage in E. coli host derived from BL21
Summary of the method: as §1

ROCK2 = molecular target: T23, ROCK2 (Homo sapiens, UniProt O75116)
T23 construct: host or cells: E. coli host derived from BL21, T7 phage display
Summary of the method: as §1

SYK = molecular target: T24, SYK (Homo sapiens, UniProt P43405)
T24 construct: host or cells: T7 phage grown in E. coli (BL21-derived)
Summary of the method: as §1

TTK = molecular target: T25, TTK (Homo sapiens, UniProt P33981)
T25 construct: host or cells: E. coli host derived from BL21, T7 phage
Summary of the method: as §1

TRKB = molecular target: T26, TRKB (Homo sapiens, UniProt Q16620)
T26 construct: host or cells: E. coli host derived from BL21, T7 phage
Summary of the method: as §1

AURKB = molecular target: T27, AURKB (Homo sapiens, UniProt Q96GD4)
T27 construct: host or cells: E. coli host derived from BL21
Summary of the method: as §1

RIOK1 = molecular target: T28, RIOK1 (Homo sapiens, UniProt Q9BRS2)
T28 construct: host or cells: E. coli host derived from BL21, T7 phage display
Summary of the method: as §1

ULK1 = molecular target: T29, ULK1 (Homo sapiens, UniProt O75385)
T29 construct: host or cells: E. coli host derived from BL21, T7 phage
Summary of the method: as §1

CSNK2A1 = molecular target: T30, CSNK2A1 (Homo sapiens, UniProt P68400)
T30 construct: purchased Ambit Biosciences Corp (KinomeScan); host or cells: T7 phage in E. coli host derived from BL21
T30 sequence (P68400 whole entry): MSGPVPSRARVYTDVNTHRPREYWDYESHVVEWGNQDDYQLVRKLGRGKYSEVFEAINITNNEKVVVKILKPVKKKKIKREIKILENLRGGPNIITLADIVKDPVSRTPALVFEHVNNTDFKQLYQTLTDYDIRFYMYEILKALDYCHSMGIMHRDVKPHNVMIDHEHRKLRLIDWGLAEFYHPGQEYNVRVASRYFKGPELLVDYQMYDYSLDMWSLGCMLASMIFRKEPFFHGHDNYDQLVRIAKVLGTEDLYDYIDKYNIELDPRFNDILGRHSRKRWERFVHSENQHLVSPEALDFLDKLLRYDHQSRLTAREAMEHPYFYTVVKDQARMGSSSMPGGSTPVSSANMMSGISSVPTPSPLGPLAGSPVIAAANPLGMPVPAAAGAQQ
Summary of the method: as §1

[3] = molecular target: T31, RPS6KA6(Kin.Dom.-1-N-terminal) (Homo sapiens, UniProt Q9UK32)
T31 construct: RPS6KA6(Kin.Dom.-1-N-terminal); host or cells: E. coli host derived from BL21, T7 phage display
T31 sequence (Q9UK32 73-330 limits assumed): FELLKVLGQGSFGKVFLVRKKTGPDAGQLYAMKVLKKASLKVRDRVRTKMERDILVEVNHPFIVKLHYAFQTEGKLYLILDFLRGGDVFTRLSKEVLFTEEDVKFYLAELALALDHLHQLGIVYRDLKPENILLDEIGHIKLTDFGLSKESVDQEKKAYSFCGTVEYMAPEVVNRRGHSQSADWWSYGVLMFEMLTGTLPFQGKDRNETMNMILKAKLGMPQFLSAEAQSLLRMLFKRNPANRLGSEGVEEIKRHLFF
Summary of the method: as §1

AURKA = molecular target: T32, AURKA (Homo sapiens, UniProt O14965)
T32 construct: host or cells: E. coli host derived from BL21
T32 sequence (O14965 whole entry): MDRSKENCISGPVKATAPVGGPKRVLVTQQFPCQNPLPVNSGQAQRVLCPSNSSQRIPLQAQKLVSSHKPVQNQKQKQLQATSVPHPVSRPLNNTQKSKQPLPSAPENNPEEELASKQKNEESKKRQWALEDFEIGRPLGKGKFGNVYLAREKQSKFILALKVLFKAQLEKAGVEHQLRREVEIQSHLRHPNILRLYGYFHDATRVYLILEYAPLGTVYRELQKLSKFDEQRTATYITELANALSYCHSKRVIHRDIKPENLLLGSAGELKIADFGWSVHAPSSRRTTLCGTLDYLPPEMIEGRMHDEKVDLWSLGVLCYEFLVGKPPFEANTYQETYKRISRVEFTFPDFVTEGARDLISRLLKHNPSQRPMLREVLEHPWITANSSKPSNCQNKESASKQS
Summary of the method: as §1

C#Cc1cccc(Nc2ncnc3cc(OC)c(OCCCN4CCOCC4)cc23)c1 [NRC-2694, N-(3-ethynylphenyl)-7-methoxy-6-[3-(4-morpholinyl)propoxy]-4-quinazolinamine]
remaining binding at 10 µM (LTK): 3.8% | remaining binding at 10 µM (ABL1(F317I)): 48% | remaining binding at 10 µM (TNK2): 37% | remaining binding at 10 µM (MST1R): 94% | remaining binding at 10 µM (ACVR2B): 63% | remaining binding at 10 µM (AMPK-alpha2): 61% | remaining binding at 10 µM (p38-beta): 100% | remaining binding at 10 µM (CSNK1A1L): 44% | remaining binding at 10 µM (EPHA7): 70% | remaining binding at 10 µM (ASK1): 100% | remaining binding at 10 µM (MEK3): 100% | remaining binding at 10 µM [1]: 72% | remaining binding at 10 µM (CDKL2): 67% | remaining binding at 10 µM (ARK5): 29% | remaining binding at 10 µM (MARK2): 70% | remaining binding at 10 µM (PAK4): 80% | remaining binding at 10 µM (PIM2): 83% | remaining binding at 10 µM (JNK1): 99% | remaining binding at 10 µM (CLK3): 45% | remaining binding at 10 µM (PDPK1): 94% | remaining binding at 10 µM [2]: 0.1% | remaining binding at 10 µM (CDC2L2): 37% | remaining binding at 10 µM (ROCK2): 38% | remaining binding at 10 µM (SYK): 56% | remaining binding at 10 µM (TTK): 48% | remaining binding at 10 µM (TRKB): 73% | remaining binding at 10 µM (AURKB): 56% | remaining binding at 10 µM (RIOK1): 36% | remaining binding at 10 µM (ULK1): 100% | remaining binding at 10 µM (CSNK2A1): 56% | remaining binding at 10 µM [3]: 94% | remaining binding at 10 µM (AURKA): 100%
